Measured values reported in US20080075786A1, “Antimicrobial agents derived from cream” (Universite de Montreal, priority 2006, published 2008).
Read-outs that look alike come from different tables or passages of the source.

Experiments:
[1] = system: Candida albicans SC5314 strain; experiment: Germination inhibition assay (antihyphal growth activity); format: cell-based; conditions: for MIC: commercial free fatty acids, gravimetrical quantification, read-out: MIC, antihyphal growth activity of individual free fatty acids
Description: The Candida albicans SC5314 strain (Fonzi, W. A. and Irwin, M. Y. 1993. Isogenic strain construction and gene mapping in Candida albicans. Genetics 134: 717-728.) was used to investigate the antihyphal activity of whey cream lipids. This strain was routinely grown as yeast cells at 30° C. in YPD medium (1% yeast extract, 2% peptone, 2% dextrose). Germination was induced by incubating cells in dextrose-free Sabouraud (Difco; Joshi, K. R., Gavin, J. B., and Bremner, D. A. 1973. The formation of germ tubes by Candida albicans in various peptone media. Sabouraudia. 11: 259-262.) at 37° C. in 96-wells microtiter plates (Costar 3595). Briefly, cells from fresh YPD cultures were harvested and washed twice with sterile water. Washed cells were suspended in dextrose-free Sabouraud at a density of 5×10^3 cells/ml and then immediately distributed to microtiter wells containing an equal volume of dextrose-free Sabouraud supplemented with different concentrations of lipids. After 15 h incubation at 37° C. in an atmospheric incubator without agitation, cells were washed and fixed with a fresh 1% formaldehyde solution. The ability of lipids to inhibit germination was determined by microscopic observations.

[2] = system: Candida albicans ZK3379 strain (CAI-4 HWP1-lacZ); experiment: C. albicans HWP1-lacZ beta-galactosidase and XTT assays (kinetics of germination inhibition in hyphae inducing media); format: cell-based
Description: Candida albicans ZK3379 strain (CAI-4 HWP1-lacZ; Hogan, D A, Vik A, Kolter R (2004). A Pseudomonas aeruginosa quorum-sensing molecule influences Candida albicans morphology. Mol Microbiol 54: 1212-1223.) was used for beta-galactosidase and XTT assays. Cells from this strain were grown in YPDA at 30° C. to a density of about 1×10^8 cells/ml (hemacytometer). These late exponentially growing cells were then washed twice with water and kept on ice until used. Germination was induced by incubating cells (final density of 5×10^5 cells/ ml) at 37° C. in 2.5 ml of either dextrose-free Sabouraud (Joshi et al., 1973), Lee's (Lee K L, Buckley H R, Campbell C C (1975). An amino acid liquid synthetic medium for the development of mycelial and yeast forms of Candida albicans. Sabouraudia 13: 148-153, Spider (Liu H, Kohler J, Fink Gr (1994). Suppression of hyphal formation in Candida albicans by mutation of a STE12 homolog. Science 266: 1723-1726 or Hypha-Forming Media (Biswas S K, Yokoyama K, Kamei K, Nishimur K, Miyaji M (2001) Inhibition of hyphal growth of Candida albicans by activated lansoprazole, a novel benzimidazole proton pump inhibitor Med Mycol 39: 283-285.), supplemented with FFAs. All lipids were dissolved in ethanol. Assays were performed in duplicate in 24-wells mictotiter plates (Costar 3526) without agitation. After appropriate incubation times (i.e. 0, 2, 4 or 6 h), microtiter plates were centrifuged for 5 min at 2000 rpm (Jouan inc. CR3i) and supernatents, discarded. XTT assays were done immediately and essentially as described (Honraet K, Goetghebeur E, Nelis H J (2005). Comparison of three assays for the quantification of Candida biomass in suspension and CDC reactor grown biofilms. J Microbiol Methods 63: 287-295). For beta-galactosidase assays, microtiter plates were frozen at −80° C. and processed later as described (Kippert F (1995). A rapid permeabilization procedure for accurate quantitative determination of beta-galactosidase activity in yeast cells. FEMS Microbiol Lett 128: 201-206; Hogan et al., 2004) but directly in microtiters plates. Absorbances were measured in 96-well microtiters plates using a microtiter plate reader (Microplate Reader MR600), equipped with filters of 410 nm (beta-galactosidase) and 490 nm (XTT), respectively.
As inhibition of germination of C. albicans by molecules could be the result of early and/or late blocking events, a more comprehensive analysis of the activity of free fatty acids was performed using multiple time points and other germ tube inducing media. Therefore, germination was monitored at 0, 2, 4 and 6 h in dextrose-free Sabouraud, Lee's, Spider and HFM7 (i.e. serum) media using the C. albicans HWP1-lacZ assay: beta-galactosidase measurements should reflect the morphological change from yeast cells to hyphal growth (Hogan et al., 2004). beta-galactosidase results were normalized using the XTT assay (Honraet et al., 2005) to correct for biomass increase. Microscopic observations of cells after 6 h incubation are also presented for each inducing conditions and correlated with beta-galactosidase data (FIG. 2).

A. fumigatus = experiment: Antifungal assay against A. fumigatus (optical density at 630 nm); format: cell-based; conditions: Aspergillus fumigatus; Sabouraud, 30° C., 40 h; commercial FFA
Description: (§1) Fractionation of Blackcurrant Seed Oil. Journal of the American Oil Chemists Society 65: 755-760). […] Under constant stirring, the mixture was heated to 75° C., or until it became clear, and then cooled slowly to 2° C. After completion of urea crystallization at 2° C. (15 h), the UFFA enriched methanol phase was separated from the urea crystals by centrifugation (5 min) at 1000×g. […] Yields were determined gravimetrically. […] UV detection was used to monitor effluent at 215 nm. Water (10 ml) was added to each of the 45 collected HPLC fractions, and they were then extracted three times with hexane (3×10 ml). […] Antifungal assay using commercial FFA were done in quadruplicates. The antifungal activity was evaluated in 96-well microtiter plates (Costar 3595) using Sabouraud as incubating medium for A. fumigatus and dextrose-free Sabouraud for C. albicans. Spores of A. fumigatus (Jeanine Joly, Université de Montréal) were germinated at 25° C. on slant agar Sabouraud media. They were harvested by washing vigorously slant cultures with 5 ml of 0.9% NaCl. Coarse debris were removed by filtrating the Aspergillus spores suspension through a sterile cotton plugs inserted into a Pasteur pipet. Monodisperse spores suspensions were obtained following brief sonications in a water bath sonicator (Branson 1210). […] Blastospores of the C. albicans SC5314 strain were prepared as for germination inhibition assays (see above). […] Wells were washed three times with Sabouraud before optical reading.

[3] = system: C. albicans SC5314 strain; experiment: Antifungal assay against C. albicans (optical density at 630 nm); format: cell-based, Candida albicans; conditions: dextrose-free Sabouraud, 37° C., commercial FFA
Description: as §1

in vitro = conditions: human, Toxicity (TC50) PBMCs
Description: (§2) Cytotoxicity was evaluated using Peripheral Blood Mononuclear cells (PBMC) of volunteers donors (Royal Victoria Hospital, Montreal). These cells were purified by the ficoll-Paque PLUS according to the manufacturer (Amersham-Bioscience). PBMC were used at a density of 100 000 cells/ml in RPMI 1640 (Sigma) supplemented with 10% heat-inactivated fetal bovine serum, 0.3 g/L of L-glutamine, 2 g/L sodium carbonate, 100 U/ml of penicillin and 100 μg/ml of streptomycin (Sigma). Assays were done in 96-well microtiter plates (Costar 3595) and the cytotoxicity was evaluated after 24 hours of incubation at 37° C. in a 5% CO2 atmospheric incubator using the LDH Cytotoxicity detection kit, according to the manufacturer (Roche Diagnostic). […] FFA were diluted in ethanol (96%) and no more than 1% ethanol (final concentration) was used in assays. Ethanol (1%) was used as negative control.
(§3) This method measures the release of lactate dehydrogenase (LDH) from the cytosol of damaged cells into the supernatant (Roche Diagnostic).

[4] = system: Peripheral Blood Mononuclear cells (PBMC); experiment: in vitro; conditions: human, 24 h
Description: as §2, §3

mammalian cells = experiment: Toxicity for mammalian cells in vitro; format: cell-based; conditions: thousand fold less concentrated solution than 10 mM; Bergsson et al., 2001; data not shown
C. albicans yeast cells = conditions: 10 mM; cited from earlier work
[5] = Candida albicans, SC5314, complete inhibition of germination, 15 h, 37° C.
[6] = Candida albicans, SC5314, same MIC in μg/ml (in brackets)

Row | Compound | MIC [1, 5] | MIC [1, 6] | activity at inhibiting C. albicans germination ([1]; individual commercial free fatty acids, highest concentration used 81 μM) | germ tube emergence and elongation ([2]; all inducing conditions tested (dextrose-free Sabouraud, Lee's, Spider, HFM7), 0-6 h (FIG. 2)) | IC50 (A. fumigatus) | IC50 ([3]; Candida albicans, SC5314, 40 h) | CC50 at 24 h (in vitro) | TC50, PBMC [4] | toxicity for mammalian cells in vitro (mammalian cells) | killing C. albicans yeast cells (C. albicans yeast cells) | MIC ([1]; complete inhibition of germination, 15 h, 37° C.) | appearance of germ tubes ([2]; Spider and HFM7 media) | appearance of germ tubes ([2]; dextrose-free Sabouraud and Lee's inducing media) | IC50 ([3]; 40 h) | CC50 [4]
1 | CCCCCCCCCC(=O)O [Capric acid (C10:0), capric acid] | 9 µM | 1.55 µg/mL | similarly active to lauric acid | completely inhibited the emergence of germ tubes | 127 µM | 182 µM | 1430 ± 32 µM | about 1.4 mM | not toxic | highly active |  |  |  |  | 
2 | CCCC/C=C\CCCCCCCC(=O)O [Myristoleic acid (C14:1n-5), myristoleic acid] | 9 µM | 2.04 µg/mL |  |  | 192 µM | 82 µM | 72 µM |  |  |  | 9 µM | partially inhibited the appearance of germ tubes | strongly inhibited the appearance of germ tubes | 81.9 ± 9.2 µM | 71.9 ± 6.2 µM
